Measurements from patent US11066414B2, “Cot modulators and methods of use thereof” (Gilead Sciences, Inc., priority 2015, dated 2021).
Where two headings read alike, the source gives them in different places.

Legend:
TNFα = assay: Cot Monocyte TNFα Cell Based Assay
Human Cot = Human Cot (Homo sapiens (Human), UniProt P41279); assay: High Throughput Cot Biochemical Assay; details: Cot HTRF (TR-FRET) biochemical assay
[1] = Homo sapiens, Monocyte, read-out: EC50 TNF, LPS-stimulated human monocytes, TNFα
[2] = read-out: EC50 TNF, LPS-stimulated human monocytes, TNFα

Human Cot, sequence (P41279 30-397): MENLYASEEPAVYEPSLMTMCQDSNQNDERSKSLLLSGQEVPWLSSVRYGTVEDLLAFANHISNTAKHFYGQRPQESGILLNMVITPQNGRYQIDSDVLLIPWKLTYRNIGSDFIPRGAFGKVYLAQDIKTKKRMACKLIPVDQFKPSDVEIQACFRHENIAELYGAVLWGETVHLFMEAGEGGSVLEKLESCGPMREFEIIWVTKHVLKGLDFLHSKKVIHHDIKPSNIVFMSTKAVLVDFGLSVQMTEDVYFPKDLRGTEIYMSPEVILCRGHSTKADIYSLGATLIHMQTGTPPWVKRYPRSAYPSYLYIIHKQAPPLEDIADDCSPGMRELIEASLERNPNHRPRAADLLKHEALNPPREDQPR

EC50 (TNFα; [1]) | IC50 (Human Cot; IC50 HTRF) | EC50 (TNFα; [2]) | IC50 (Human Cot; read-out: IC50 HTRF) | Structure (SMILES)
172 nM | 9 nM | – | – | Cc1ncsc1[C@H](Nc1cc(Cl)c2ncc(C#N)c(Nc3ccc(Cl)c(Cl)c3F)c2c1)c1cn(C2CCN(C(C)(C)C)CC2)nn1 [Example 236, (R)-6-(((1-(1-(tert-butyl)piperidin-4-yl)-1H-1,2,3-triazol-4-yl)(4-methylthiazol-5-yl)methyl)amino)-8-chloro-4-((3,4-dichloro-2-fluorophenyl)amino)quinoline-3-carbonitrile]
– | – | 29 nM | 1 nM | C[C@@H](Nc1c(C#N)cnc2c(Cl)cc(N[C@H](c3cn(C4CCN(C(C)(C)C)CC4)nn3)c3csc4c3CCN(C3COC3)C4)cc12)c1ccccc1 [Example 237]
901 nM | 3 nM | – | – | C[C@@H](Nc1c(C#N)cnc2c(Cl)cc(N[C@H](c3c[nH]nn3)c3csc4c3CCN(C3COC3)C4)cc12)c1ccccc1 [Example 238, 8-chloro-6-(((S)-(6-(oxetan-3-yl)-4,5,6,7-tetrahydrothieno[2,3-c]pyridin-3-yl)(1H-1,2,3-triazol-4-yl)methyl)amino)-4-(((R)-1-phenylethyl)amino)quinoline-3-carbonitrile]
928 nM | 16 nM | – | – | Cc1ncsc1[C@H](Nc1cc(Cl)c2ncc(C#N)c(N[C@H](C)c3ccccc3)c2c1)c1cn(C(C)C)nn1 [Example 239, 8-chloro-6-(((R)-(1-isopropyl-1H-1,2,3-triazol-4-yl)(4-methylthiazol-5-yl)methyl)amino)-4-(((R)-1-phenylethyl)amino)quinoline-3-carbonitrile]
631 nM | 16 nM | – | – | Cc1ncsc1[C@H](Nc1cc(Cl)c2ncc(C#N)c(N[C@H](C)c3ccccc3)c2c1)c1cn(C2CCN(C(C)(C)C)CC2)nn1 [Example 240, 6-(((R)-(1-(1-(tert-butyl)piperidin-4-yl)-1H-1,2,3-triazol-4-yl)(4-methylthiazol-5-yl)methyl)amino)-8-chloro-4-(((R)-1-phenylethyl)amino)quinoline-3-carbonitrile]
32 nM | 2 nM | – | – | CC(C)(C)N1CCC(n2cc([C@@H](Nc3cc(Cl)c4ncc(C#N)c(Nc5cccc(Cl)c5F)c4c3)c3csc4c3CCN(C3COC3)C4)nn2)CC1 [Example 241, (S)-6-(((1-(1-(tert-butyl)piperidin-4-yl)-1H-1,2,3-triazol-4-yl)(6-(oxetan-3-yl)-4,5,6,7-tetrahydrothieno[2,3-c]pyridin-3-yl)methyl)amino)-8-chloro-4-((3-chloro-2-fluorophenyl)amino)-quinoline-3-carbonitrile]
– | – | 5800 nM | 143 nM | N#Cc1cnc2c(Cl)cc(N[C@@H](c3cocn3)c3cn(C4CCN(C5COC5)CC4)nn3)cc2c1Nc1ccc(Cl)c(Cl)c1F [Example 242, (S)-8-chloro-4-((3,4-dichloro-2-fluorophenyl)amino)-6-((o)(azol-4-yl(1-(1-(oxetan-3-yl)piperidin-4-yl)-1H-1,2,3-triazol-4-yl)methyl)amino)quinoline-3-carbonitrile]
9490 nM | 41 nM | – | – | Cc1ncsc1[C@H](Nc1cc(Cl)c2ncc(C#N)c(N[C@H](C)c3ccccc3)c2c1)c1c[nH]nn1 [Example 243, 8-chloro-6-(((R)-(4-methylthiazol-5-yl)(1H-1,2,3-triazol-4-yl)methyl)amino)-4-(((R)-1-phenylethyl)amino)quinoline-3-carbonitrile]
328 nM | 4 nM | – | – | CC(C)n1cc([C@@H](Nc2cc(Cl)c3ncc(C#N)c(Nc4ccc(F)c(Cl)c4)c3c2)C2=CCOCC2)nn1 [Example 244, (S)-8-chloro-4-((3-chloro-4-fluorophenyl)amino)-6-(((3,6-dihydro-2H-pyran-4-yl)(1-isopropyl-1H-1,2,3-triazol-4-yl)methyl)amino)quinoline-3-carbonitrile]
125 nM | 2 nM | – | – | Cc1ncccc1[C@H](Nc1cc(Cl)c2ncc(C#N)c(Nc3cccc(Cl)c3F)c2c1)c1cn(C(C)C)nn1 [Example 245, (S)-8-chloro-4-((3-chloro-2-fluorophenyl)amino)-6-(((1-isopropyl-1H-1,2,3-triazol-4-yl)(2-methylpyridin-3-yl)methyl)amino)quinoline-3-carbonitrile]
652 nM | 6 nM | – | – | N#Cc1cnc2c(Cl)cc(N[C@H](c3c[nH]nn3)c3csc4c3CCN(C3COC3)C4)cc2c1Nc1cccc(Cl)c1F [Example 246, (S)-8-chloro-4-((3-chloro-2-fluorophenyl)amino)-6-(((6-(oxetan-3-yl)-4,5,6,7-tetrahydrothieno[2,3-c]pyridin-3-yl)(1H-1,2,3-triazol-4-yl)methyl)amino)quinoline-3-carbonitrile]
102 nM | – | – | 2 nM | Cc1ncccc1[C@H](Nc1cc(Cl)c2ncc(C#N)c(Nc3cccc(Cl)c3F)c2c1)c1cn(C2CCN(C(C)(C)C)CC2)nn1 [Example 247, (S)-6-(((1-(1-(tert-butyl)piperidin-4-yl)-1H-1,2,3-triazol-4-yl)(2-methylpyridin-3-yl)methyl)amino)-8-chloro-4-((3-chloro-2-fluorophenyl)amino)quinoline-3-carbonitrile]
398 nM | 4 nM | – | – | Cc1ncccc1[C@H](Nc1cc(Cl)c2ncc(C#N)c(Nc3cccc(Cl)c3F)c2c1)c1c[nH]nn1 [Example 248, (S)-8-chloro-4-((3-chloro-2-fluorophenyl)amino)-6-(((2-methylpyridin-3-yl)(1H-1,2,3-triazol-4-yl)methyl)amino)-quinoline-3-carbonitrile]
127 nM | 5 nM | – | – | Cc1cncc([C@H](Nc2cc(Cl)c3ncc(C#N)c(Nc4ccc(F)c(Cl)c4)c3c2)c2cn(C3CCN(C(C)(C)C)CC3)nn2)c1 [Example 250, (S)-6-(((1-(1-(tert-butyl)piperidin-4-yl)-1H-1,2,3-triazol-4-yl)(5-methylpyridin-3-yl)methyl)amino)-8-chloro-4-((3-chloro-4-fluorophenyl)amino)quinoline-3-carbonitrile]
347 nM | 5 nM | – | – | Cc1ncsc1[C@H](Nc1cc(Cl)c2ncc(C#N)c(Nc3cccc(Cl)c3F)c2c1)c1c[nH]nn1 [Example 251, (R)-8-chloro-4-((3-chloro-2-fluorophenyl)amino)-6-(((4-methylthiazol-5-yl)(1H-1,2,3-triazol-4-yl)methyl)amino)quinoline-3-carbonitrile]
119 nM | 6 nM | – | – | Cc1ncsc1[C@H](Nc1cc(Cl)c2ncc(C#N)c(Nc3cccc(Cl)c3F)c2c1)c1cn(C(C)C)nn1 [Example 252, (R)-8-chloro-4-((3-chloro-2-fluorophenyl)amino)-6-(((1-isopropyl-1H-1,2,3-triazol-4-yl)(4-methylthiazol-5-yl)methyl)-amino)quinoline-3-carbonitrile]
66 nM | 4 nM | – | – | Cc1ncsc1[C@H](Nc1cc(Cl)c2ncc(C#N)c(Nc3cccc(Cl)c3F)c2c1)c1cn(C2CCN(C(C)(C)C)CC2)nn1 [Example 253, (R)-6-(((1-(1-(tert-butyl)piperidin-4-yl)-1H-1,2,3-triazol-4-yl)(4-methylthiazol-5-yl)methyl)amino)-8-chloro-4-((3-chloro-2-fluorophenyl)amino)quinoline-3-carbonitrile]
230 nM | 3 nM | – | – | CC[C@@H](Nc1c(C#N)cnc2c(Cl)cc(N[C@@H](c3cccnc3)c3c[nH]nn3)cc12)c1ccccc1 [Example 254, 8-chloro-4-(((R)-1-phenylpropyl)amino)-6-(((S)-pyridin-3-yl(1H-1,2,3-triazol-4-yl)methyl)amino)quinoline-3-carbonitrile]
766 nM | 10 nM | – | – | C[C@@H](Nc1c(C#N)cnc2c(Cl)cc(N[C@@H](c3cccnc3)c3c[nH]nn3)cc12)c1ccccc1 [Example 255, 8-chloro-4-(((R)-1-phenylethyl)amino)-6-(((S)-pyridin-3-yl(1H-1,2,3-triazol-4-yl)methyl)amino)quinoline-3-carbonitrile]
341 nM | 16 nM | – | – | N#Cc1cnc2c(Cl)cc(N[C@@H](c3cccnc3)c3c[nH]nn3)cc2c1Nc1ccc(Cl)c(Cl)c1F [Example 256, (S)-8-chloro-4-((3,4-dichloro-2-fluorophenyl)amino)-6-((pyridin-3-yl(1H-1,2,3-triazol-4-yl)methyl)-amino)quinoline-3-carbonitrile]
212 nM | 6 nM | – | – | N#Cc1cnc2c(Cl)cc(N[C@@H](c3cccnc3)c3c[nH]nn3)cc2c1Nc1cccc(Cl)c1F [Example 257, (S)-8-chloro-4-((3-chloro-2-fluorophenyl)amino)-6-((pyridin-3-yl(1H-1,2,3-triazol-4-yl)methyl)-amino)quinoline-3-carbonitrile]
– | – | 33 nM | 2 nM | CC[C@@H](Nc1c(C#N)cnc2c(Cl)cc(N[C@@H](c3cccnc3)c3cn(C4CCN(C(C)(C)C)CC4)nn3)cc12)c1ccccc1 [Example 258]
158 nM | 6 nM | – | – | C[C@@H](Nc1c(C#N)cnc2c(Cl)cc(N[C@@H](c3cccnc3)c3cn(C4CCN(C(C)(C)C)CC4)nn3)cc12)c1ccccc1 [Example 259, 6-(((S)-(1-(1-(tert-butyl)piperidin-4-yl)-1H-1,2,3-triazol-4-yl)(pyridin-3-yl)methyl)amino)-8-chloro-4-(((R)-1-phenylethyl)amino)quinoline-3-carbonitrile]
126 nM | 6 nM | – | – | CC(C)(C)N1CCC(n2cc([C@@H](Nc3cc(Cl)c4ncc(C#N)c(Nc5ccc(Cl)c(Cl)c5F)c4c3)c3cccnc3)nn2)CC1 [Example 260, (S)-6-(((1-(1-(tert-butyl)piperidin-4-yl)-1H-1,2,3-triazol-4-yl)(pyridin-3-yl)methyl)amino)-8-chloro-4-((3,4-dichloro-2-fluorophenyl)amino)-quinoline-3-carbonitrile]
